≈ marks a conversion by molar mass, not a printed value. Where two headings read alike, the source gives them in different places.
Columns and labels:
[1] = Kinetic solubility in aqueous PBS buffer (HPLC-MS); format: physicochemical; details: kinetic from dmso stock, DMSO stock mixed with aqueous PBS buffer, filtered, read-out: Kinetic Solubility
Method in brief: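 A concentrated DMSO stock was mixed with aqueous PBS buffer and filtered. The filtrate was quantified against an HPLC-MS calibration curve.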

tubulin [2] = test: Tubulin polymerization assay; format: biochemical; details: compound 19 at 0.3, 1, 3 and 6 uM; compound 73 at 0.1, 0.3, 1, 3 and 5 uM
LN18 cells = test: Cell viability (AlamarBlue), LN18 glioma cells; format: cell-based; details: Homo sapiens, LN-18, 72 hours of treatment
Protocol: (§1) In another exemplary method, half maximal effective concentration (EC50) was determined for some compounds and their isomers as disclosed herein in a variety of human cancer cell lines. In brief, cells from two prostate cancer cell lines (LNCaP, 22RV1), one glioblastoma cell line (U87), one breast cancer cell line (MCF7), a glioma cell line (LN18), a normal prostate cell line (RWPE1), and a glioblastoma cell line (T98G) were plated in a multi-well plate. After 24 hours, one of the compounds herein was added to the well at increasing concentrations. After 72 hours of treatment, cell viability was assessed using AlamrBlue® (Invitrogen) and fluorescence was read using the CLARIOstar Plus Multilabel Plate Reader (BMG Labtech). Samples were normalized to no treatment controls. EC50 values were determined using GraphPad Prism.

[3] = system: colchicine binding site (tubulin) in MCF7 cell lines; test: N,N'-ethylene-bis(iodoacetamide) (EBI) competition assay in MCF7 cells; format: cell-based; details: MCF7 cell lines (FIG. 44)
Description: FIG. 44 represent N,N′-ethylene-bis(iodoacetamide) (EBI) competition assay with compounds 19, 73 and 93 in MCF7 cell lines showing binding of compounds in colchicine binding site in accordance with certain embodiments of the present disclosure. Colchicine (COL) and nocodazole (NOC) are positive controls while vincristine (VINC) is negative control.
(§2) Microtubule-targeting agents that bind at the colchicine-site of tubulin are of interest in antitumoral therapy due to their action as anti-mitotics. […] Nocodazole was used as a positive control. […] Colchicine (COL) and nocodazole (NOC) are positive controls while vincristine (VINC) is negative control.

U87 glioblastoma cells = test: Combination with ionizing radiation in U87 cells; format: cell-based; details: 2 Gy ionizing radiation and 0.04-0.3 uM compound; versus ionizing radiation alone
[4] = system: colchicine-site of tubulin; test: Fluorescence-based colchicine competitive binding assay; details: 50 uM (FIG. 43)
Protocol: FIG. 43 represent fluorescence-based colchicine competitive binding assay with compounds 19, 73 and 93 at 50 uM concentration in accordance with certain embodiments of the present disclosure. Nocodazole (NOC) is positive control.
as §2

[5] = system: LN18 glioblastoma cancer cells; test: Combination with Temozolomide, Bliss synergy in LN18 cells; format: cell-based; details: Temozolomide 0 to 1000 uM, compound 0.625 to 10 uM
Protocol: Synergy was calculated with the Bliss independence model. Compounds were combined at concentrations of 0 to 1000 uM for Temozolomide and 0.625 to 10 uM for compounds 19 and 59.

tubulin [6] = test: Tubulin polymerization assay; format: biochemical; details: 5 uM (FIG. 41A, 41C) or 1 uM (FIG. 41B)
Protocol: FIG. 41A-41C represent exemplary experiments illustrating inhibition of tubulin polymerization. FIG. 41A illustrates effects of compounds 19, 73, 86, 93 and 94 at 5 uM concentration. FIG. 41B illustrates effects of compounds 93, 94, 95 and 96 at 1 uM concentration.
FIG. 41C illustrates effects of compounds 73, 86, 87 and 88 at 5 uM concentration in accordance with certain embodiments of the present disclosure. Colchicine and vincristine are positive controls.
FIG. 42A-42B represent exemplary experiments illustrating inhibition of tubulin polymerization. FIG. 42A illustrates effects of compound 19 at 0.3, 1, 3 and 6 uM concentrations.
FIG. 42B illustrates effects of compound 73 at […] concentration in accordance with certain embodiments of the present disclosure. Colchicine and nocodazole are positive controls.
In another exemplary method, the effect of the compounds herein on tubulin polymerization was determined. FIG. 41A illustrates effects of compounds 19, 73, 86, 93 and 94 at 5 uM concentration, FIG. 41B illustrates effects of compounds 93, 94, 95 and 96 at 1 uM concentration, or FIG. 41C illustrates effects of compounds 87 and 88 at 5 uM concentration in accordance with certain embodiments of the present disclosure. Colchicine and vincristine are positive controls.
The dose dependent effect of compounds 19 and 73 on tubulin polymerization was also determined. FIG. 42A illustrates effects of compound 19 at 0.3, 1, 3 and 6 uM concentrations, and FIG. 42B illustrates effects of compound 73 at 0.1, 0.3, 1, 3 and 5 uM concentration in accordance with certain embodiments of the present disclosure. Colchicine and nocodazole are positive controls.

U87 cells = test: Cell viability (AlamarBlue), U87 glioblastoma cells; format: cell-based, human; details: Homo sapiens, U-87 MG, 72 h, 72 hours of treatment
Method in brief: (§3)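 Following a 72-hour incubation with escalating compound doses, applied one day after seeding, AlamarBlue fluorescence gave viability relative to untreated cells, from which half-maximal effective concentrations were calculated.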

22RV1 cells = test: Cell viability (AlamarBlue), 22RV1 prostate cancer cells; format: cell-based, human; details: Homo sapiens, 22Rv1, 72 h, 72 hours of treatment
Method in brief: as §3

[7] = system: 22Rv1 prostate cancer cells; test: Combination with Rabusertib, Bliss synergy in 22Rv1 cells; format: cell-based; details: Rabusertib 0 to 30 uM, compound 0.625 to 5 uM
Protocol: Synergy was calculated with the Bliss independence model. Compounds were combined at concentrations of 0 to 30 uM for Rabusertib and 0.625 to 5 uM for compounds 73 and 76.

T98G cells = test: Cell viability (AlamarBlue), T98G glioblastoma cells; format: cell-based; details: Homo sapiens, 72 hours of treatment
Protocol: as §1

[8] = Plasma and brain levels in healthy mouse; format: in vivo; details: oral dose
Description: FIG. 53A-53B represent an exemplary experiment illustrating concentration of Compound 98 in plasma after oral dose (FIG. 53A); FIG. 53B represents levels of Compound 98 in plasma and brain tissue after administration to a rodent model in accordance with certain embodiments of the present disclosure.
FIG. 53A illustrates concentrations of Compound 98 in healthy mouse plasma over time. FIG. 53B and Table 9 illustrates concentrations of Compound 98 in healthy mouse plasma and brain at 0.5, 1 and 2 hrs.

[9] = brain, read-out: Healthy Brain concentration
[10] = plasma, read-out: Plasma concentration

With `COC1CC(C(=O)NC(=O)Nc2ccc(Oc3ccc(Cl)cn3)c(C)c2)C1` (stereo not shown) [Compound 19, N-((4-((5-chloropyridin-2-yl)oxy)-3-methylphenyl)carbamoyl)-3-methoxycyclobutane-1-carboxamide] the solubility kinetic [1] was 5.68 µM (≈ 2.21 µg/mL), the “dose dependent effect on tubulin polymerization” value (tubulin [2]) was “significantly inhibit tubulin polymerization in a dose dependent manner” and the EC50 (LN18 cells) was 0.83 µM. The “EBI competition assay result” value [3] was “inhibitors of EBI binding”, the “cancer cell viability with ionizing radiation plus compound” value (U87 glioblastoma cells) was “reduced cancer cell viability relative to cells treated with ionizing radiation alone” and the “colchicine competitive binding assay result” value [4] was “significantly inhibit microtubule assembly”. For the same molecule, the “Bliss Synergy value, combination with Temozolomide” value ([5]; LN18 cells, Bliss independence model) was 29.5, the “effect of combination with Temozolomide on cancer cell viability” value [5] was “synergistic decrease in cancer cell viability” and the “effect on tubulin polymerization” value (tubulin [6]) was “significantly inhibit tubulin polymerization”.
In the case of `COC1CC(C(=O)NC(=O)Nc2cc(C)c(Oc3ncc(Cl)cn3)c(F)c2)C1` (stereo not shown) [Compound 73, N-((4-((5-chloropyrimidin-2-yl)oxy)-3-fluoro-5-methylphenyl)carbamoyl)-3-methoxycyclobutane carboxamide], the EC50 (U87 cells) was 0.12 µM, the “dose dependent effect on tubulin polymerization” value (tubulin [2]) was “significantly inhibit tubulin polymerization in a dose dependent manner” and the “EBI competition assay result” value [3] was “inhibitors of EBI binding”. The “colchicine competitive binding assay result” value [4] was “significantly inhibit microtubule assembly”, the EC50 (22RV1 cells) was 0.068 µM and the “effect on tubulin polymerization” value (tubulin [6]) was “significantly inhibit tubulin polymerization”. The “Bliss Synergy value, combination with Rabusertib” value ([7]; 22Rv1 cells, Bliss independence model) was 20.7 and the “effect of combination with Rabusertib on cancer cell viability” value [7] was “synergistic decrease in cancer cell viability”.
In the case of `COC1CC(C(=O)NC(=O)Nc2ccc(C)c(Oc3nccs3)c2)C1` (stereo not shown) [Compound 93, 3-methoxy-N-((4-methyl-3-(thiazol-2-yloxy)phenyl)carbamoyl)cyclobutane-1-carboxamide], the EC50 (U87 cells) was 0.03 µM, the solubility kinetic [1] was 8.9 µM (≈ 3.22 µg/mL) and the “EBI competition assay result” value [3] was “inhibitors of EBI binding”. For the same molecule, the “colchicine competitive binding assay result” value [4] was “significantly inhibit microtubule assembly” and the “effect on tubulin polymerization” value (tubulin [6]) was “significantly inhibit tubulin polymerization”.
For `COC12CC(C(=O)NC(=O)Nc3ccc(C)c(Oc4ccccn4)c3)(C1)C2` [Compound 98, 3-methoxy-N-((4-methyl-3-(pyridin-2-yloxy)phenyl)carbamoyl)bicyclo[1.1.1]pentane-1-carboxamide], the EC50 (U87 cells) was 0.02 µM, the EC50 (LN18 cells) was 0.07 µM and the EC50 (T98G cells) was 0.0189 µM. For the same molecule, the concentration at 0.5 h [8, 9] was 230 ng/g, the concentration at 1 h [8, 9] was 234 ng/g and the concentration at 2 h [8, 9] was 257 ng/g. For the same molecule, the concentration at 0.5 h [8, 10] was 424 ng/mL, the concentration at 1 h [8, 10] was 490 ng/mL and the concentration at 2 h [8, 10] was 399 ng/mL.

From patent US12404242B2, “Compositions and methods for making and using small molecules in the treatment of cancer” (Reglagene, Inc., priority 2021, dated 2025)
